Results from patent publication US20200017495A1, “NOVEL HETEROCYCLIC COMPOUNDS AND THEIR USE IN PREVENTING OR TREATING BACTERIAL INFECTIONS” (priority 2017, published 2020).

Tests used:
Type in all cases: cell-based
[1] = tested on: Serratia marcescens (SMA) isolates; test: MIC of compounds alone and combined with antibacterials, broth microdilution (CLSI)
Procedure, shortened: (§1)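 First, log-phase suspensions are brought to 5.10^5 CFU/mL final in ca-MHB; plates then incubate 16-20 h at 35° C in air. Growth is judged visually, giving the compound MIC alone and the antibacterial MIC at each compound concentration.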

[2] = tested on: Citrobacter murliniae (CMU) isolates; test: as above; settings: for MIC ATB in combination: CMU 210102
Procedure, shortened: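 Genotyped isolates; cpd ± antibacterial, DMSO spots; ca-MHB, 5.10^5 CFU/mL; 35° C, 16-20 h, air; visual MIC; ATB MIC per cpd concentration.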

[3] = tested on: Proteus mirabilis (PMI) isolates; test: microbe, parasite or virus in culture
Procedure, shortened: as §1

SMILES: C=CC1=C(C(=O)O)N2C(=O)[C@@H](NC(=O)/C(=N\OCC(=O)O)c3csc(N)n3)[C@H]2SC1 [FIX, Cefixime]
- MIC ([1]; strain SMA UFR140, genotype IMP-1): >128 µg/mL
- MIC ATB in combination ([1]; strain SMA UFR140, with AF2 @ 8 μg/mL): >128 µg/mL
- MIC ATB in combination ([1]; strain SMA UFR140, with AF3 @ 8 μg/mL): >128 µg/mL
- MIC ATB in combination ([1]; strain SMA UFR140, with CLA @ 4 μg/mL): >128 µg/mL
- MIC ([1]; strain SMA UFR141, genotype OXA-48): 2 µg/mL
- MIC ([1]; strain SMA UFR142, genotype OXA-48): 2 µg/mL
- MIC ([1]; strain SMA UFR143, compound alone): 512 µg/mL
- MIC ([1]; strain SMA UFR143, genotype CTX-M-15, OXA-1, OXA-48): 512 µg/mL
- MIC ([1]; strain SMA UFR238, genotype OXA-48): 1 µg/mL
- MIC ATB in combination ([1]; strain SMA UFR238, with AF2 @ 8 μg/mL): 0.5 µg/mL
- MIC ATB in combination ([1]; strain SMA UFR238, with AF3 @ 8 μg/mL): 0.5 µg/mL
- MIC ATB in combination ([1]; strain SMA UFR238, with CLA @ 4 μg/mL): 2 µg/mL
- MIC ([1]; strain SMA UFR239, genotype ESAC): 2 µg/mL
- MIC ATB in combination ([2]; AF2 @ 8 μg/mL): >128 µg/mL
- MIC ATB in combination ([2]; AF3 @ 8 μg/mL): >128 µg/mL
- MIC ATB in combination ([2]; CLA @ 4 μg/mL): >128 µg/mL
- MIC ([2]; strain CMU 210102, genotype VIM-4): >128 µg/mL
- MIC ATB in combination ([3]; PMI UFR82, AF2 @ 8 μg/mL): <0.25 µg/mL
- MIC ATB in combination ([3]; PMI UFR82, AF3 @ 8 μg/mL): <0.25 µg/mL
- MIC ATB in combination ([3]; PMI UFR82, CLA @ 4 μg/mL): 4 µg/mL
- MIC ATB in combination ([3]; PMI UFR126, AF2 @ 8 μg/mL): <0.25 µg/mL
- MIC ATB in combination ([3]; PMI UFR126, AF3 @ 8 μg/mL): <0.25 µg/mL
- MIC ATB in combination ([3]; PMI UFR126, CLA @ 4 μg/mL): <=0.25 μg/mL
- MIC ATB in combination ([3]; PMI UFR127, AF2 @ 8 μg/mL): <0.25 µg/mL
- MIC ATB in combination ([3]; PMI UFR127, AF3 @ 8 μg/mL): <0.25 µg/mL
- MIC ATB in combination ([3]; PMI UFR127, CLA @ 4 μg/mL): <=0.25 μg/mL
- MIC ATB in combination ([3]; PMI UFR128, AF2 @ 8 μg/mL): <0.25 µg/mL
- MIC ATB in combination ([3]; PMI UFR128, AF3 @ 8 μg/mL): <0.25 µg/mL
- MIC ATB in combination ([3]; PMI UFR128, CLA @ 4 μg/mL): 0.5 µg/mL
- MIC ATB in combination ([3]; PMI UFR129, AF2 @ 8 μg/mL): <0.25 µg/mL
- MIC ATB in combination ([3]; PMI UFR129, AF3 @ 8 μg/mL): <0.25 µg/mL
- MIC ATB in combination ([3]; PMI UFR129, CLA @ 4 μg/mL): <=0.25 μg/mL
- MIC ATB in combination ([3]; PMI UFR130, AF2 @ 8 μg/mL): <0.25 µg/mL
- MIC ATB in combination ([3]; PMI UFR130, AF3 @ 8 μg/mL): <0.25 µg/mL
- MIC ATB in combination ([3]; PMI UFR130, CLA @ 4 μg/mL): 8 µg/mL
- MIC ATB in combination ([3]; PMI UFR133, AF2 @ 8 μg/mL): <0.25 µg/mL
- MIC ATB in combination ([3]; PMI UFR133, AF3 @ 8 μg/mL): <0.25 µg/mL
- MIC ATB in combination ([3]; PMI UFR133, CLA @ 4 μg/mL): <=0.25 μg/mL
- MIC ATB in combination ([3]; PMI UFR237, AF2 @ 8 μg/mL): <0.25 µg/mL
- MIC ATB in combination ([3]; PMI UFR237, AF3 @ 8 μg/mL): <0.25 µg/mL
- MIC ATB in combination ([3]; PMI UFR237, CLA @ 4 μg/mL): <=0.25 μg/mL
- MIC ([3]; strain PMI UFR82, genotype CMY-2): 8 µg/mL
- MIC ([3]; strain PMI UFR120, genotype TEM-1, SHV-11, CTX-M-14): 0.5 µg/mL
- MIC ([3]; strain PMI UFR121, genotype TEM-1, TEM-52): 128 µg/mL
- MIC ([3]; strain PMI UFR122, genotype TEM-1, CTX-M-15): 1 µg/mL
- MIC ([3]; strain PMI UFR123, genotype CTX-M-1): 128 µg/mL
- MIC ([3]; strain PMI UFR124, genotype CTX-M-2): >128 µg/mL
- MIC ([3]; strain PMI UFR125, genotype CTX-M-71): 0.5 µg/mL
- MIC ([3]; strain PMI UFR126, compound alone): 1024 µg/mL
- MIC ([3]; strain PMI UFR126, genotype TEM-2, PER-1): 1024 µg/mL
- MIC ([3]; strain PMI UFR127, compound alone): >128 µg/mL
- MIC ([3]; strain PMI UFR127, genotype VEB-1): >128 µg/mL
- MIC ([3]; strain PMI UFR128, genotype VEB-1, OXA-10): >128 µg/mL
- MIC ([3]; strain PMI UFR129, genotype TEM-1, VEB-6): >128 µg/mL
- MIC ([3]; strain PMI UFR130, genotype CMY-2): 8 µg/mL
- MIC ([3]; strain PMI UFR131, genotype CMY-16, OXA-1, OXA-10, NDM-1, ArmA): >128 µg/mL
- MIC ATB in combination ([3]; strain PMI UFR131, with AF2 @ 8 μg/mL): <0.25 µg/mL
- MIC ATB in combination ([3]; strain PMI UFR131, with AF3 @ 8 μg/mL): <0.25 µg/mL
- MIC ATB in combination ([3]; strain PMI UFR131, with CLA @ 4 μg/mL): >128 µg/mL
- MIC ([3]; strain PMI UFR132, genotype VEB-6, DHA-1, NDM-1, AphA6, AacA4): >128 µg/mL
- MIC ATB in combination ([3]; strain PMI UFR132, with AF2 @ 8 μg/mL): <0.25 µg/mL
- MIC ATB in combination ([3]; strain PMI UFR132, with AF3 @ 8 μg/mL): <0.25 µg/mL
- MIC ATB in combination ([3]; strain PMI UFR132, with CLA @ 4 μg/mL): >128 µg/mL
- MIC ([3]; strain PMI UFR133, genotype OXA-23): <=0.25 μg/mL
- MIC ([3]; strain PMI UFR237, genotype VEB-6): >128 µg/mL
